Data reported in ChEMBL document CHEMBL1201862, “PubChem BioAssay data set” (2004).
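Growth conditions: 96-well plates. Treatment: test compound, 48 hours, 5 concentrations. Analysis: linear interpolation between bracketing concentrations; unreached endpoints set to highest concentration. At the GI50, growth is halved.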 Active and inactive are the calls of the source. Rule as the data show it: active = GI50 up to about 1.1 µM and inactive = higher.

How the values were obtained:
Assay in all cases: growth of human tumour cells (NCI), 48 h
[1] = test system: LXFL 529
[2] = test system: DLD-1
[3] = test system: KM-20L2
[4] = test system: RXF 631
[5] = test system: DMS-114
[6] = test system: DMS-273
[7] = test system: MCF7
[8] = test system: MDA-N
[9] = test system: BT-549

CC(CC(=O)Nc1ccc(NC(=O)CC(C)/N=N\C(N)=S)cc1)/N=N\C(N)=S (centres undefined)
GI50 [1]: > 100 µM (inactive)
GI50 [2]: > 100 µM (inactive)
GI50 [3]: > 100 µM (inactive)
GI50 [4]: > 100 µM (inactive)
GI50 [5]: 53.7 µM (inactive)
GI50 [6]: 36.9 µM (inactive)

Cc1cc(NS(=O)(=O)c2ccc(Nc3c4ccccc4nc4c(C(=O)Nc5ccc(S(=O)(=O)N=C(N)N)cc5)cccc34)cc2)no1
GI50 [1]: > 100 µM (inactive)
GI50 [2]: > 100 µM (inactive)
GI50 [3]: > 100 µM (inactive)
GI50 [4]: > 100 µM (inactive)
GI50 [5]: > 100 µM (inactive)
GI50 [6]: > 100 µM (inactive)

Cc1ccccc1C(=O)c1cc(O)ccc1O
GI50 [1]: > 100 µM (inactive)
GI50 [2]: 55.7 µM (inactive)
GI50 [3]: 32.6 µM (inactive)
GI50 [4]: > 100 µM (inactive)
GI50 [5]: 45.7 µM (inactive)
GI50 [6]: 42.3 µM (inactive)

O=Cc1[nH]c2ccccc2c1Br
GI50 [1]: 25.5 µM (inactive)
GI50 [2]: 22.6 µM (inactive)
GI50 [3]: 22.2 µM (inactive)
GI50 [4]: 20 µM (inactive)
GI50 [5]: 18.5 µM (inactive)
GI50 [6]: 17.8 µM (inactive)

C[C@@H](C1CCC2C3C(=CC(=O)[C@@]21C)[C@H](C)[C@]1(CCC(=O)O1)C1OC31)[C@H]1C[C@]2(C)O[C@@](C)(O1)OC2(C)C (some centres undefined)
GI50 [1]: > 100 µM (inactive)
GI50 [2]: > 100 µM (inactive)
GI50 [3]: > 100 µM (inactive)
GI50 [4]: > 100 µM (inactive)
GI50 [5]: > 100 µM (inactive)
GI50 [6]: > 100 µM (inactive)

COc1ccc(CCc2cc(OC)c(OC)c(OC)c2)cc1
GI50 [7]: 0.0283 µM (active)
GI50 [1]: 0.0552 µM (active)
GI50 [2]: < 0.01 µM (active)
GI50 [3]: 0.0128 µM (active)
GI50 [8]: < 0.01 µM (active)
GI50 [9]: 2.32 µM (inactive)
GI50 [4]: < 0.0166 µM (active)
GI50 [5]: 0.0248 µM (active)
GI50 [6]: < 0.01 µM (active)
